# Measured values: patent publication US20230406831A1, “COMPOUNDS AND METHODS OF INHIBITING BACTERIAL CHAPERONIN SYSTEMS” (THE TRUSTEES OF INDIANA UNIVERSITY, priority 2020, published 2023)
# Key:
# [1] = molecular target: T1, HSP60/10 (Homo sapiens, UniProt P10809); experiment: HSP60/10-mediated dMDH refolding assay; format: biochemical; conditions: Table 2; 37° C., 1 mM ATP; read-out: Biochemical Assay IC50 HSP60/10-dMDH Refolding
# T1 construct: octa-Histidine (His8) tag, TEV-cleavable (N, cleaved yes); made in house; host or cells: HSP60 in Rosetta 2 (DE3) E. coli; HSP10 in Rosetta 2 (DE3) pLysS
# T1 sequence (P10809 27-573): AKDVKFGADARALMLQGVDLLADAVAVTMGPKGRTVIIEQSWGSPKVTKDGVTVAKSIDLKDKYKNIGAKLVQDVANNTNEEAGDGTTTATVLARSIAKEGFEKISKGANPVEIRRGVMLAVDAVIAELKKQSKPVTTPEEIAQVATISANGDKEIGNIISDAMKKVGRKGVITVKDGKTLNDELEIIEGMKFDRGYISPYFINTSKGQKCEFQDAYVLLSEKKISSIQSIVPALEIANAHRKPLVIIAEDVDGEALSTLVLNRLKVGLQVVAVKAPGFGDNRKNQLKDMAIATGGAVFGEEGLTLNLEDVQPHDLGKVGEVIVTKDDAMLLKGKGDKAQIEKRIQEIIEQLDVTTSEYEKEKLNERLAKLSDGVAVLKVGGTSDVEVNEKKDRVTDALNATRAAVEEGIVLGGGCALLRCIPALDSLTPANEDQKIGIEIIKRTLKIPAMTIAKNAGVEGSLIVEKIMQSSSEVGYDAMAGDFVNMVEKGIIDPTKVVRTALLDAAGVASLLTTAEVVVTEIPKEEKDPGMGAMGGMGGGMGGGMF
# Experimental: (§1) Evaluation of compounds ability to inhibit GroEL/ES and HSP60/10-mediated dMDH refolding assays.
# (§2) Reagent preparation: For these assays, four primary reagent stocks were prepared: 1) GroEL/ES-dMDH or HSP60/10-dMDH binary complex stock; 2) ATP initiation stock; 3) EDTA quench stock; 4) MDH enzymatic assay stock. Denatured MDH (dMDH) was prepared by 2-fold dilution of MDH (5 mg/ml, soluble pig heart MDH from Roche, product #10127248001) with denaturant buffer (7 M guanidine-HCl, 200 mM Tris, pH 7.4, and 50 mM DTT). MDH was completely denatured by incubating at room temperature for 45 min. The binary complex solutions were prepared by slowly adding the dMDH stock to a stirring stock with GroEL (or HSP60) in folding buffer (50 mM Tris-HCl, pH 7.4, 50 mM KCl, 10 mM MglC2, and 1 mM DTT), followed by addition of GroES (or HSP10). The binary complex stocks were prepared immediately prior to dispensing into the assay plates and had final protein concentrations of 83.3 nM GroEL (Mr 800 kDa) or HSP60 (Mr 400 kDa), 100 nM GroES or HSP10 (Mr 70 kDa), and 20 nM dMDH in folding buffer. For the ATP initiation stock, ATP solid was diluted into folding buffer to a final concentration of 2.5 mM. Quench solution contained 600 mM EDTA (pH 8.0). The MDH enzymatic assay stock consisted of 20 mM sodium mesoxalate and 2.4 mM NADH in reaction buffer (50 mM Tris-HCl, pH 7.4, 50 mM KC1, and 1 mM DTT).
# (§3) Assay Protocol: First, 30 μL aliquots of the GroEL/ES-dMDH or HSP60/10-dMDH binary complex stocks were dispensed into clear, 384-well polystyrene plates. Next, 0.5 μL of the compound stocks (10 mM to 4.6 μM, 3-fold dilutions series in DMSO) were added by pin-transfer (V&P Scientific). The chaperonin-mediated refolding cycles were initiated by addition of 20 IA of ATP stock (reagent concentrations during refolding cycle: 50 nM GroEL or HSP60, 60 nM GroES or HSP10, 12 nM dMDH, 1 mM ATP, and compounds of 100 μM to 46 nM, 3-fold dilution series). The refolding reactions were incubated at 37° C. The incubation time was determined from refolding time-course control experiments until they reached ˜90% completion of refolding cycle — generally ˜20-40 min for GroEL/ES, and ˜40-60 min for HSP60/10). Next, the assay was quenched by addition of 10 μL of the EDTA to final concentration of 100 mM. […] A340 nm measurements were recorded at 0.5 minutes (start point) and at successive time points until the amount of NADH consumed reached ˜90% (end point, generally between 20-35 minutes). The differences between the start and end point A340 values were used to calculate the % inhibition of the GroEL/ES or HSP60/10 machinery by the compounds. IC50 values for the test compounds were obtained by plotting the % inhibition results in GraphPad Prism 6 and analyzing by non-linear regression using the log (inhibitor) vs. response (variable slope) equation. Results presented represent the averages of IC50 values obtained from at least quadriplicate (duplicate of duplicate) replicates. For results, see Tables 1, 2, and 3.
# [2] = molecular target: T2, native MDH (Sus scrofa, UniProt P00346); experiment: Native MDH enzymatic activity counter-screen; format: biochemical, pig; conditions: Table 2; compounds added after refolding and EDTA quench; read-out: Biochemical Assay IC50 Native MDH Activity
# T2 construct: soluble pig heart MDH from Roche, product #10127248001; purchased Roche 10127248001; host or cells: pig heart
# T2 sequence (P00346 25-338): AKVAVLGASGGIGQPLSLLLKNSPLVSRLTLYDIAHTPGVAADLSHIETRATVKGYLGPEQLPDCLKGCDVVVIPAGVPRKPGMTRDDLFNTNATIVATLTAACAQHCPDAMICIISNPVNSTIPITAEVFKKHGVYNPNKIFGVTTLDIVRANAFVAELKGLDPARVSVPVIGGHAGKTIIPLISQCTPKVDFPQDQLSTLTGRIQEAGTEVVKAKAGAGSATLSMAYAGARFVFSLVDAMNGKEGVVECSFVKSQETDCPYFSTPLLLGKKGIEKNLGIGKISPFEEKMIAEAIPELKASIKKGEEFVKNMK
# Experimental: Counter-screening compounds for inhibition of native MDH enzymatic activity.
# Reagent Preparations & Assay Protocol: This assay was performed as described above for the GroEL/ES-dMDH refolding assay; however, the assay protocol differed in the sequence of compound addition to the assay plates. The refolding reactions were allowed to proceed for 45 min at 37° C. in the absence of test compounds (complete refolding of MDH occurs), then quenched with the EDTA stock. Compounds were then pin-transferred into the plates after the EDTA quenching step; thus, compounds effects are only possible by inhibiting the fully-refolded MDH reporter substrate. Next enzymatic activity of the refolded MDH was initiated by addition of 20 μL MDH enzymatic assay stock (20 mM sodium mesoxalate and 2.4 mM NADH in reaction buffer, 50 mM Tris pH 7.4, 50 mM KCl, 1 mM DTT), and followed by measuring the NADH absorbance in each well at 340 nm using a Molecular Devices SpectraMax Plus384 microplate reader
# A340 nm measurements were recorded at 0.5 minutes (start point) and at successive time points until the amount of NADH consumed reached ˜90% (end point, generally between 20-35 minutes). Compounds were tested in 8-point, 3-fold dilution series (62.5 μM to 29 nM during the reporter reaction) in clear, flat-bottom 384-well microtiter plates.
# DMSO was used as a negative control, and previously discovered native MDH inhibitors were used as positive controls. IC50 values for the test compounds were obtained by plotting the % inhibition results in GraphPad Prism 6 and analyzing by non-linear regression using the log (inhibitor) vs. response (variable slope) equation. Results presented represent the averages of IC50 values obtained from at least quadriplicate (duplicate of duplicate) replicates.
# [3] = molecular target: T3, GroEL/ES (Escherichia coli, UniProt P0A6F5); experiment: GroEL/ES-mediated dMDH refolding assay; format: biochemical, E. coli
# T3 construct: made in house; host or cells: GroEL in E. coli DH5a; GroES in E. coli BL21 (DE3)
# T3 sequence (P0A6F5 2-548): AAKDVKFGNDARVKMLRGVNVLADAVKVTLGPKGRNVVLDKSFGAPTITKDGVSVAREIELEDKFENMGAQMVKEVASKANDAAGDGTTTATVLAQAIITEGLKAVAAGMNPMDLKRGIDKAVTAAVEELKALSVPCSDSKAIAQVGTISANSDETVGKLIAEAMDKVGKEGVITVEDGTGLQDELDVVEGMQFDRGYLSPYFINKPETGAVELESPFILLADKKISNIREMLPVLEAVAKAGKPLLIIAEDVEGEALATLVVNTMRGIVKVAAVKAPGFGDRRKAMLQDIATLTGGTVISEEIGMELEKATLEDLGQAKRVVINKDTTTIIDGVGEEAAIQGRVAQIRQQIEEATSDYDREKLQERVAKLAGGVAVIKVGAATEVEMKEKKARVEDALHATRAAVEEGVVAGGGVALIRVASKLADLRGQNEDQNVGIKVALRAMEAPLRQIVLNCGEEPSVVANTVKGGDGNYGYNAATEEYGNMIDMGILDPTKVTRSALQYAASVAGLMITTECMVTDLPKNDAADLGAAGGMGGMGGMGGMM
# Experimental: as §1, §2, §3
Structure (SMILES),IC50 [1] [µM],IC50 [2] [µM],IC50 [3] [µM]
"Cc1ccc(O)c(C(=O)Nc2cc(Cl)c(C(C#N)c3ccc(Cl)cc3)cc2C)c1 (stereo not drawn) [Compound 60, N-(5-chloro-4-((4-chlorophenyl)(cyano)methyl)-2-methylphenyl)-2-hydroxy-5-methylbenzamide]",85,> 63,41
"COc1ccccc1C(=O)Nc1cc(Cl)c(C(C#N)c2ccc(Cl)cc2)cc1C (stereo not drawn) [Compound 61, N-(5-chloro-4-((4-chlorophenyl)(cyano)methyl)-2-methylphenyl)-2-methoxybenzamide]",> 100,> 63,72
"COc1cccc(C(=O)Nc2cc(Cl)c(C(C#N)c3ccc(Cl)cc3)cc2C)c1 (stereo not drawn) [Compound 62, N-(5-chloro-4-((4-chlorophenyl)(cyano)methyl)-2-methylphenyl)-3-methoxybenzamide]",> 100,> 63,67
"COc1ccc(C(=O)Nc2cc(Cl)c(C(C#N)c3ccc(Cl)cc3)cc2C)cc1 (stereo not drawn) [Compound 63, N-(5-chloro-4-((4-chlorophenyl)(cyano)methyl)-2-methylphenyl)-4-methoxybenzamide]",> 100,> 63,65
"Cc1cc(C(C#N)c2ccc(Cl)cc2)c(Cl)cc1NC(=O)c1ccccc1O (stereo not drawn) [Compound 64, N-(5-chloro-4-((4-chlorophenyl)(cyano)methyl)-2-methylphenyl)-2-hydroxybenzamide]",50,> 63,33
"Cc1cc(C(C#N)c2ccc(Cl)cc2)c(Cl)cc1NC(=O)c1cccc(O)c1 (stereo not drawn) [Compound 65, N-(5-chloro-4-((4-chlorophenyl)(cyano)methyl)-2-methylphenyl)-3-hydroxybenzamide]",33,> 63,55
"Cc1cc(C(C#N)c2ccc(Cl)cc2)c(Cl)cc1NC(=O)c1ccc(O)cc1 (stereo not drawn) [Compound 66, N-(5-chloro-4-((4-chlorophenyl)(cyano)methyl)-2-methylphenyl)-4-hydroxybenzamide]",35,> 63,47
"Cc1cc(C(C#N)c2ccc(Cl)cc2)c(Cl)cc1NC(=O)c1ccccc1[N+](=O)[O-] (stereo not drawn) [Compound 67, N-(5-chloro-4-((4-chlorophenyl)(cyano)methyl)-2-methylphenyl)-2-nitrobenzamide]",> 100,> 63,43
"Cc1cc(C(C#N)c2ccc(Cl)cc2)c(Cl)cc1NC(=O)c1cccc([N+](=O)[O-])c1 (stereo not drawn) [Compound 68, N-(5-chloro-4-((4-chlorophenyl)(cyano)methyl)-2-methylphenyl)-3-nitrobenzamide]",> 100,> 63,43
"Cc1cc(C(C#N)c2ccc(Cl)cc2)c(Cl)cc1NC(=O)c1ccc([N+](=O)[O-])cc1 (stereo not drawn) [Compound 69, N-(5-chloro-4-((4-chlorophenyl)(cyano)methyl)-2-methylphenyl)-4-nitrobenzamide]",> 100,> 63,37
"Cc1cc(C(C#N)c2ccc(Cl)cc2)c(Cl)cc1NC(=O)c1ccccc1N (stereo not drawn) [Compound 70, 2-amino-N-(5-chloro-4-((4-chlorophenyl)(cyano)methyl)-2-methylphenyl)benzamide]",> 100,> 63,44
"Cc1cc(C(C#N)c2ccc(Cl)cc2)c(Cl)cc1NC(=O)c1cccc(N)c1 (stereo not drawn) [Compound 71, 3-amino-N-(5-chloro-4-((4-chlorophenyl)(cyano)methyl)-2-methylphenyl)benzamide]",> 100,> 63,51
"Cc1cc(C(C#N)c2ccc(Cl)cc2)c(Cl)cc1NC(=O)c1ccc(N)cc1 (stereo not drawn) [Compound 72, 4-amino-N-(5-chloro-4-((4-chlorophenyl)(cyano)methyl)-2-methylphenyl)benzamide]",73,> 63,47
"Cc1cc(C(C#N)c2ccc(Cl)cc2)c(Cl)cc1NC(=O)c1ccccc1Br (stereo not drawn) [Compound 73, 2-bromo-N-(5-chloro-4-((4-chlorophenyl)(cyano)methyl)-2-methylphenyl)benzamide]",> 100,> 63,53
"Cc1cc(C(C#N)c2ccc(Cl)cc2)c(Cl)cc1NC(=O)c1cccc(Br)c1 (stereo not drawn) [Compound 74, 3-bromo-N-(5-chloro-4-((4-chlorophenyl)(cyano)methyl)-2-methylphenyl)benzamide]",> 100,> 63,50
"Cc1cc(C(C#N)c2ccc(Cl)cc2)c(Cl)cc1NC(=O)c1ccc(Br)cc1 (stereo not drawn) [Compound 75, 4-bromo-N-(5-chloro-4-((4-chlorophenyl)(cyano)methyl)-2-methylphenyl)benzamide]",> 100,> 63,58
"Cc1cc(C(C#N)c2ccc(Cl)cc2)c(Cl)cc1NC(=O)c1ccccc1Cl (stereo not drawn) [Compound 76, 2-chloro-N-(5-chloro-4-((4-chlorophenyl)(cyano)methyl)-2-methylphenyl)benzamide]",> 100,> 63,54
"Cc1cc(C(C#N)c2ccc(Cl)cc2)c(Cl)cc1NC(=O)c1cccc(Cl)c1 (stereo not drawn) [Compound 77, 3-chloro-N-(5-chloro-4-((4-chlorophenyl)(cyano)methyl)-2-methylphenyl)benzamide]",> 100,> 63,63
"Cc1cc(C(C#N)c2ccc(Cl)cc2)c(Cl)cc1NC(=O)c1ccc(Cl)cc1 (stereo not drawn) [Compound 78, 4-chloro-N-(5-chloro-4-((4-chlorophenyl)(cyano)methyl)-2-methylphenyl)benzamide]",> 100,> 63,63
